From ChEMBL document CHEMBL1764991, “Epiafzelechin from the root bark of Cassia sieberiana: detection by DART mass spectrometry, spectroscopic characterization, and antioxidant properties” (J Nat Prod, 2011) come the findings set out here.

The test system of test [1] is Liver. Briefly: Inhibition of H2O2-induced lipid peroxidation in rat liver homogenates assessed as malondialdehyde level at 32 ug/ml after 4 hrs. It counts as functional, tissue-based.
Test [2] has as its system Radical scavenging activity. The test is described as follows: Antioxidant activity assessed as DPPH radical scavenging activity. The format is functional. A general note: Loss of DPPH colour is used to gauge radical scavenging.
Test [3] concerns Liver. Briefly: Inhibition of H2O2-induced lipid peroxidation in rat liver homogenates assessed as malondialdehyde level after 4 hrs. It counts as functional, tissue-based.
Test [4] can be described thus: Antioxidant activity assessed as ferric ion reducing activity using fe3+-TPTZ at 40 ug/ml by FRAP assay. It counts as functional.
Test [5] relates to Liver. Briefly: Inhibition of H2O2-induced lipid peroxidation in rat liver homogenates assessed as malondialdehyde level at 80 ug/ml after 4 hrs. It counts as functional, tissue-based.
The nature of test [6]: Antioxidant activity assessed as ferric ion reducing activity using fe3+-TPTZ at 80 ug/ml by FRAP assay. It counts as functional.
Test [7] can be described thus: Antioxidant activity assessed as ferric ion reducing activity using fe3+-TPTZ at 20 ug/ml by FRAP assay. It counts as functional.

≈ marks a conversion by molar mass, not a printed value.

As for `O=c1c(O)c(-c2ccc(O)c(O)c2)oc2cc(O)cc(O)c12` [QUERCETIN], the inhibition in test [1] stood at 75.4%. The IC50 in test [2] was determined as 23.53 µg/mL (≈ 77.9 µM). Moreover, the Activity in test [3] stood at 19.4 nM/ml.
As to `Oc1ccc([C@H]2Oc3cc(O)cc(O)c3C[C@H]2O)cc1` [EPIAFZELECHIN (2R,3R)(-)], the Activity in test [4] was 978 µM/L; in test [6], 1510 µM/L; in test [3] it was 14.4 nM/ml; in test [7] it was 493 µM/L. Further, the inhibition in test [5] worked out at 81.8%. In addition, the IC50 in test [2] was determined as 9.25 µg/mL (≈ 33.7 µM).

One may read the inhibition as the percentage by which the read-out fell short of the control. In general, IC50 refers to the concentration that inhibits the measured activity by half.
